Measured values: the NIST ThermoML archive (doi:10.1016/j.jct.2006.09.017)

What was measured:
[1] = 101.33 kPa, Liquid
[2] = xn = mol fraction of the nth substance listed; settings: 101 kPa, Liquid

CCO [ethanol]
[1]
Settings	mass density [kg/m3]
283.15 K	797.88
298.15 K	785.13
313.15 K	772.05

CCCCCO [pentan-1-ol]
[1]
Settings	mass density [kg/m3]
283.15 K	821.81
298.15 K	810.88
313.15 K	799.71

CN1CCN(C)C1=O [1,3-dimethyl-2-imidazolidinone] + CCO
mass density [kg/m3], [2]
Settings	x1 = 0.09998	x1 = 0.2	x1 = 0.3001	x1 = 0.3999	x1 = 0.4996	x1 = 0.6002	x1 = 0.6999	x1 = 0.8	x1 = 0.8994
283.15 K	846.13	886.41	920.6	949.96	975.63	998.13	1017.79	1035.31	1050.79
298.15 K	833.1	873.26	907.41	936.72	962.36	984.83	1004.56	1022.19	1037.59
313.15 K	819.85	859.85	893.96	923.29	948.92	971.48	991.29	1008.94	1024.41

CN1CCN(C)C1=O [1,3-dimethyl-2-imidazolidinone]
[1]
Settings	mass density [kg/m3]
283.15 K	1064.86
298.15 K	1051.59
313.15 K	1038.38

CN1CCN(C)C1=O [1,3-dimethyl-2-imidazolidinone] + CCCCCCCO
mass density [kg/m3], [2]
Settings	x1 = 0.09996	x1 = 0.1999	x1 = 0.3001	x1 = 0.4	x1 = 0.5	x1 = 0.6001	x1 = 0.7	x1 = 0.8001	x1 = 0.8992
283.15 K	847.64	866.92	887.24	908.58	931.08	954.87	979.95	1006.61	1034.61
298.15 K	836.89	855.89	875.96	897.05	919.28	942.82	967.68	994.04	1021.77
313.15 K	826.03	844.8	864.62	885.45	907.49	930.78	955.41	981.47	1009.02

CCCCCCCO [heptan-1-ol]
[1]
Settings	mass density [kg/m3]
283.15 K	829.27
298.15 K	818.78
313.15 K	808.11

CO [methanol]
[1]
Settings	mass density [kg/m3]
283.15 K	800.62
298.15 K	786.56
313.15 K	772.32

CN1CCN(C)C1=O [1,3-dimethyl-2-imidazolidinone] + CCCCCCCCO
mass density [kg/m3], [2]
Settings	x1 = 0.09996	x1 = 0.2	x1 = 0.3002	x1 = 0.4001	x1 = 0.5	x1 = 0.599	x1 = 0.7002	x1 = 0.7996	x1 = 0.8999
283.15 K	848.3	865.7	884.37	904.35	925.89	948.94	974.48	1001.78	1031.95
298.15 K	837.74	854.88	873.28	893.01	914.29	937.08	962.3	989.29	1019.12
313.15 K	827.05	843.97	862.14	881.63	902.66	925.21	950.12	976.81	1006.31

CCCCO [butan-1-ol]
[1]
Settings	mass density [kg/m3]
283.15 K	817.18
298.15 K	805.79
313.15 K	794.18

CCCCCCCCO [octan-1-ol]
[1]
Settings	mass density [kg/m3]
283.15 K	832.06
298.15 K	821.72
313.15 K	811.21

CN1CCN(C)C1=O [1,3-dimethyl-2-imidazolidinone] + CO
mass density [kg/m3], [2]
Settings	x1 = 0.09987	x1 = 0.1999	x1 = 0.2999	x1 = 0.4	x1 = 0.4985	x1 = 0.6002	x1 = 0.7001	x1 = 0.8002	x1 = 0.9003
283.15 K	866.6	914.65	950.88	978.91	1000.83	1019.06	1033.62	1045.88	1056.16
298.15 K	852.53	900.56	936.99	965.04	987.09	1005.48	1020.04	1032.47	1042.89
313.15 K	838.25	886.37	922.85	951.05	973.2	991.72	1006.43	1019.04	1029.49

CCCO [propan-1-ol]
[1]
Settings	mass density [kg/m3]
283.15 K	811.54
298.15 K	799.59
313.15 K	787.36

CN1CCN(C)C1=O [1,3-dimethyl-2-imidazolidinone] + CCCO
mass density [kg/m3], [2]
Settings	x1 = 0.09998	x1 = 0.2	x1 = 0.2999	x1 = 0.4001	x1 = 0.4998	x1 = 0.6001	x1 = 0.7	x1 = 0.7999	x1 = 0.9
283.15 K	847.83	880.77	910.83	938.4	963.7	987.2	1008.86	1028.91	1047.62
298.15 K	835.55	868.25	898.06	925.54	950.74	974.16	995.74	1015.73	1034.43
313.15 K	823.05	855.56	885.22	912.63	937.7	961.08	982.62	1002.67	1021.31

CN1CCN(C)C1=O [1,3-dimethyl-2-imidazolidinone] + CCCCCO
mass density [kg/m3], [2]
Settings	x1 = 0.1	x1 = 0.2	x1 = 0.3	x1 = 0.4001	x1 = 0.5001	x1 = 0.6001	x1 = 0.7	x1 = 0.8002	x1 = 0.9
283.15 K	846.41	870.95	895.43	919.88	944.23	968.5	992.7	1016.92	1040.93
298.15 K	835.16	859.39	883.62	907.84	931.97	956.02	980.01	1004.03	1027.87
313.15 K	823.75	847.72	871.72	895.74	919.68	943.56	967.36	991.25	1014.87

CN1CCN(C)C1=O [1,3-dimethyl-2-imidazolidinone] + CCCCO
mass density [kg/m3], [2]
Settings	x1 = 0.09992	x1 = 0.2	x1 = 0.3	x1 = 0.4002	x1 = 0.5	x1 = 0.6	x1 = 0.7002	x1 = 0.7999	x1 = 0.9001
283.15 K	846.49	874.68	901.72	927.79	952.85	976.95	1000.25	1022.61	1044.18
298.15 K	834.78	862.67	889.49	915.33	940.22	964.19	987.34	1009.57	1031.03
313.15 K	822.87	850.54	877.11	902.78	927.48	951.32	974.35	996.45	1017.84

CCCCCCO [hexan-1-ol]
[1]
Settings	mass density [kg/m3]
283.15 K	826.03
298.15 K	815.34
313.15 K	804.46

CN1CCN(C)C1=O [1,3-dimethyl-2-imidazolidinone] + CCCCCCO
mass density [kg/m3], [2]
Settings	x1 = 0.1	x1 = 0.2	x1 = 0.3	x1 = 0.4001	x1 = 0.5	x1 = 0.6001	x1 = 0.7002	x1 = 0.7998	x1 = 0.9001
283.15 K	847.11	868.74	890.96	913.77	937.21	961.32	986.12	1011.48	1037.74
298.15 K	836.15	857.49	879.43	901.99	925.23	949.12	973.62	998.72	1024.71
313.15 K	825.02	846.12	867.81	890.13	913.07	936.71	961.04	985.96	1011.88
